Structures are written as SMILES.

These results are taken from PMC8178126, “Evaluation of the available cholesterol concentration in the inner leaflet of the plasma membrane of mammalian cells” (Journal of Lipid Research, 2021).

In the experiment the target is T1, Osh4-Δ1-40 (template of Osh4-Δ1-40(K109A) and eOsh4) (Saccharomyces cerevisiae, UniProt P35844, K109A).
T1 construct: gene KES1; N-terminal lid (aa 1-40) removed; pET-30a, N- and C-terminal His6 tags (printed for eOsh4), E. coli BL21 RIL codon plus
Kind of experiment: SPR (BIACORE X-100, L1 chip, immobilised LUVs, equilibrium Req). The following applies: apparent, 20 mM Tris pH 7.4, 0.16 M NaCl, 23 °C. In kind it is binding. On the technique in general: SPR reads the build-up and loss of mass on a sensor chip optically.

Turning to `C[C@H](CCCC(C)(C)O)[C@H]1CC[C@H]2[C@@H]3CC=C4C[C@@H](O)CC[C@]4(C)[C@H]3CC[C@]12C` [25-hydroxycholesterol], the Kd (protein concentration at half-maximal binding to POPC/POPS/25HC 75:20:5 LUVs (Fig. 3D legend 77:20:5)) was 800 ± 130 nM.
On to `CC(C)CCC[C@@H](C)[C@H]1CC[C@H]2[C@@H]3CC=C4C[C@@H](O)CC[C@]4(C)[C@H]3CC[C@]12C` [cholesterol], for which the Kd (protein concentration at half-maximal binding to POPC/POPS/cholesterol 75:20:5 LUVs (Fig. 3D legend 77:20:5)) amounted to 100 ± 16 nM.
